Measurements reported in patent US20100168016A1, “DIAGNOSIS AND TREATMENT OF DISEASES CAUSED BY MISFOLDED PROTEINS” (THE JACKSON LABORATORY, priority 2007, published 2010).
Residues, ends and D or L forms follow the SMILES beside them. *: point of attachment. Cbz = O=C(OCc1ccccc1)*

What was measured:
[1] = tested on: HA-ANKRD16^CAST-transfected COS-7 cells; assay: subcellular localization of ANKRD16 in transfected COS-7 cells; type: cell-based, monkey; settings: for relocalization of ANKRD16: 10 μM MG132 or 10 μM epoximicin or 3-MA, 24 hours after transfection, within 12 hours of treatment
Description: Cellular localization of full-length ANKRD16 was determined by transfection of epitope-tagged full-length ANKRD16^CAST into monkey kidney fibroblast COS-7 cells and human alveolar epithelial A549 cells. The ANKRD16 coding sequence was amplified by polymerase chain reaction from cDNA by using Pfu DNA polymerase (Stratagene), purified by agarose gel electrophoresis and ligated in-frame with the HA-tag into the pcDNA3 vector. This clone encoded a fusion ANKRD16 with the tag at its C-terminus. All DNA constructs were confirmed by sequencing. COS-7 and A549 cells were maintained in Dulbecco's modified Eagle's medium (Sigma-Aldrich). All cells were grown at 37° C. in 5% CO2 and supplemented with 10% (vol/vol) fetal calf serum, 100 U/ml penicillin and 100 μg/ml streptomycin. Transfections were performed using Lipofectamine 2000 transfection reagent (Invitrogen, USA) according to the manufacturer's protocol. Cells were cultured for 48 h after transfection.
To determine if the induction of autophagy changes the intracellular localization of ANKRD16, we treated transfected cells with rapamycin to induce macroautophagy (data not shown) or performed serum starvation experiments (known to induce chaperone-mediated autophagy after 18 hours) on transfected cells (data not shown). COS-7 cells were transfected with full-length HA-ANKRD16^CAST constructs. […] Nor was co-localization observed with endosome, autophagosome or lysosome markers (data not shown) in the presence or absence of rapamycin or proteasome inhibitors administered as described below.
Several proteins that regulate protein folding and/or the disposal of misfolded proteins are induced or change their subcellular localization in response to misfolded protein stress. To examine if subcellular localization changes with intracellular accumulation of misfolded proteins, we treated full-length HA-ANKRD16^CAST-transfected COS-7 cells 24 hours after transfection with proteosome inhibitors, 10 μM MG132 (Sigma-Aldrich) or 10 μM epoximicin (Sigma-Aldrich) or blocked autophagy with 3-methyladenine (3-MA; Sigma-Aldrich). […]
For immunostaining the cells were fixed with 4% paraformaldehyde (PFA) at room temperature for 5 min, then incubated with anti-ubiquitin, anti-HA, anti-r-tubulin, and anti-vimentin antibodies overnight at 4° C. […] The fluorescence was detected under a fluorescence microscope.

[2] = tested on: mouse embryonic fibroblasts from CASTEi/J mice; assay: aggresome localization of ANKRD16 in fibroblasts under proteasomal stress; type: cell-based; settings: 1 μM epoximicin for 18 hours
Description: Mouse embryonic fibroblasts were isolated from CASTEi/J mice. To isolate embryonic fibroblasts, CASTEi/J mice were paired for time of pregnancy. E13.5 day pregnant female mice for each of the strains were sacrificed. The time point E0.5 is the morning of finding a plug after pairing a female with a male. The uteri were removed and placed into a dish with PBS and washed. The embryos were isolated free of extraembryonic tissue and washed in PBS. Each embryo was placed into a separate 14 ml tube containing 3 ml of media (DMEM, 10% FBS) and homogenized for 2 seconds. The homogenized tissues were put into 145 mm tissue culture plates (e.g. CellStar from USA Scientific cat.#5663-9160) containing 20 ml of media (DMEM, 10% FBS). The cells were incubated at 37° C. in 5% CO2 until cells were confluent, which was on average from 5 to 7 days. The cells were expanded according to standard tissue culture methods using trypsin and the same passage number for each cell line was used for the experiment. To stress the fibroblast they were treated for 18 hours with 1 μM epoximicin, a proteosome inhibitor (Genaxxon). Then untreated and treated cells were fixed, visualized for ANKRD16 expression using indirect immunofluorescence with polyclonal ANKRD16 rabbit antibody as primary antibody and Alexa555-conjugated anti-rabbit IgG (Invitrogen, Molecular Probes) as secondary antibody. […]

| SMILES | relocalization of ANKRD16 [1] | localization of ANKRD16 [2] | formation of the aggresome structure ([1]; 10 μg/ml nocodazole) |
| --- | --- | --- | --- |
| Cn1cnc(N)c2ncnc1-2 [3-methyladenine] | Relocalization of ANKRD16 to a juxtanuclear structure |  |  |
| CC(C)C[C@@H](C=O)NC(=O)[C@H](CC(C)C)NC(=O)[C@H](CC(C)C)NC(=O)OCc1ccccc1 [MG132] (Cbz-Leu-Leu-Leu-aldehyde) | Relocalization of ANKRD16 to a juxtanuclear structure |  |  |
| CC[C@H](C)[C@H](NC(=O)[C@H]([C@@H](C)CC)N(C)C(C)=O)C(=O)N[C@H](C(=O)N[C@@H](CC(C)C)C(=O)[C@@]1(C)CO1)[C@@H](C)O [epoximicin] | Relocalization of ANKRD16 to a juxtanuclear structure | relocalized to the aggresome |  |
| COC(=O)Nc1nc2ccc(C(=O)c3cccs3)cc2[nH]1 [nocodazole] |  |  | disrupted |
